{"source": "patent US10294202B2", "about": "“Pyrrolidinones as herbicides” (FMC Corporation, priority 2013, dated 2019)", "key": {"wheat": {"test_system": "wheat", "experiment": "Test A pre-/postemergence herbicide test", "assay_type": "in vivo, Triticum aestivum", "conditions": "Postemergence", "in_short": "(§1)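 Scoring was visual, relative to untreated controls, on a 0–100 scale after about 10 greenhouse days. Preemergence treatment used a directed soil spray over seeded loam/sand; postemergence treatment targeted one- to two-leaf plants of 2–10 cm.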"}, "corn": {"test_system": "corn", "experiment": "Test A pre-/postemergence herbicide test", "assay_type": "in vivo, Zea mays", "conditions": "Postemergence", "in_short": "as §1"}, "kochia": {"test_system": "kochia", "experiment": "Test A pre-/postemergence herbicide test", "assay_type": "in vivo, Kochia scoparia", "in_short": "as §1"}, "barnyardgrass": {"test_system": "barnyardgrass", "experiment": "Test A pre-/postemergence herbicide test", "assay_type": "in vivo, Echinochloa crus-galli", "in_short": "as §1"}, "ragweed": {"test_system": "ragweed", "experiment": "Test A pre-/postemergence herbicide test", "assay_type": "in vivo, Ambrosia elatior", "from_the_text": "(§2) Seeds of plant species selected from bamyardgrass (Echinochloa crus-galli), kochia (Kochia scoparia), ragweed (common ragweed, Ambrosia elatior), ryegrass, Italian (Italian ryegrass, Lolium multiflorum), crabgrass, large (large crabgrass Digitaria sanguinalis), giant foxtail (Setaria faberii), morningglory (Ipomoea spp.), pigweed (Amaranthus retroflexus), velvetleaf (Abutilon theophrasti), wheat (Triticum aestivum), and corn (Zea mays) were planted into a blend of loam soil and sand and treated preemergence with a directed soil spray using test chemicals formulated in a non-phytotoxic solvent mixture which included a surfactant. At the same time, plants selected from these crop and weed species and also blackgrass (Alopecurus myosuroides), and galium (catchweed bedstraw, Galium aparine) were planted in pots containing the same blend of loam soil and sand and treated with postemergence applications of test chemicals formulated in the same manner. Plants ranged in height from 2 to 10 cm and were in the one- to two-leaf stage for the postemergence treatment. Treated plants and untreated controls were maintained in a greenhouse for approximately 10 days, after which time all treated plants were compared to untreated controls and visually evaluated for injury. Plant response ratings, summarized in Table A, are based on a 0 to 100 scale where 0 is no effect and 100 is complete control. A dash (-) response means no test result."}, "pigweed": {"test_system": "pigweed", "experiment": "Test A pre-/postemergence herbicide test", "assay_type": "in vivo, Amaranthus retroflexus", "in_short": "as §1"}, "giant foxtail": {"test_system": "giant foxtail", "experiment": "Test A pre-/postemergence herbicide test", "assay_type": "in vivo, Setaria faberii", "in_short": "as §1"}, "ryegrass, Italian": {"test_system": "ryegrass, Italian", "experiment": "Test A pre-/postemergence herbicide test", "assay_type": "in vivo, Lolium multiflorum", "from_the_text": "as §2"}, "blackgrass": {"test_system": "blackgrass", "experiment": "Test A postemergence herbicide test", "assay_type": "in vivo, Alopecurus myosuroides", "in_short": "(§3)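 Potted in loam soil/sand blend; postemergence application at 1–2 leaf stage (2–10 cm). Greenhouse ~10 d. Visual injury vs untreated, 0–100 scale; 100 = complete control.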"}, "galium": {"test_system": "galium", "experiment": "Test A postemergence herbicide test", "assay_type": "in vivo, Galium aparine", "in_short": "as §3"}, "[1]": {"conditions": "125 g ai/ha, 0 to 100 scale, 0 is no effect, 100 is complete control"}, "[2]": {"conditions": "125 g ai/ha, visual rating, 0 to 100 scale, 0 no effect, 100 complete control, approximately 10 days, preemergence"}, "[3]": {"conditions": "Postemergence, 125 g ai/ha, 0 to 100 scale, 0 is no effect, 100 is complete control"}, "[4]": {"conditions": "preemergence, 500 g ai/ha, 0 to 100 scale, 0 is no effect and 100 is complete control"}, "[5]": {"conditions": "1000 g ai/ha, 0 to 100 scale (0 no effect, 100 complete control)"}, "[6]": {"conditions": "Postemergence, 1000 g ai/ha, 0 to 100 scale (0 no effect, 100 complete control)"}, "[7]": {"conditions": "preemergence, 1000 g ai/ha, 0 to 100 scale"}, "[8]": {"conditions": "preemergence, 1000 g ai/ha, 0 to 100 scale (0 no effect, 100 complete control)"}}}
{"smiles": "COc1ccc(NC(=O)C2C(=O)NCC2c2cccc(C(F)(F)F)c2)cc1F", "note": "(racemic) [Compound 188]", "values": [{"measurement": "Plant response rating, Wheat", "setting": "wheat; [1]", "result": 0}, {"measurement": "Wheat plant response rating (0 to 100 scale, 0 is no effect, 100 is complete control)", "setting": "wheat; 500 g ai/ha", "result": 0}, {"measurement": "Plant response rating, Corn", "setting": "corn; [1]", "result": 0}, {"measurement": "Corn plant response rating (0 to 100 scale, 0 is no effect, 100 is complete control)", "setting": "corn; 500 g ai/ha", "result": 0}, {"measurement": "Plant response rating, Kochia", "setting": "kochia; [2]", "result": 0}, {"measurement": "Plant response rating, Kochia", "setting": "kochia; [3]", "result": 0}, {"measurement": "Kochia plant response rating (0 to 100 scale, 0 is no effect, 100 is complete control)", "setting": "kochia; Postemergence, 500 g ai/ha", "result": 0}, {"measurement": "Plant response rating, Kochia", "setting": "kochia; [4]", "result": 0}, {"measurement": "Plant response rating, Barnyardgrass", "setting": "barnyardgrass; [2]", "result": 0}, {"measurement": "Plant response rating, Barnyardgrass", "setting": "barnyardgrass; [3]", "result": 0}, {"measurement": "Barnyardgrass plant response rating (0 to 100 scale, 0 is no effect, 100 is complete control)", "setting": "barnyardgrass; Postemergence, 500 g ai/ha", "result": 0}, {"measurement": "Plant response rating, Barnyardgrass", "setting": "barnyardgrass; [4]", "result": 0}, {"measurement": "Plant response rating, Ragweed", "setting": "ragweed; [2]", "result": 0}, {"measurement": "Plant response rating, Ragweed", "setting": "ragweed; [3]", "result": 0}, {"measurement": "Ragweed plant response rating (0 to 100 scale, 0 is no effect, 100 is complete control)", "setting": "ragweed; Postemergence, 500 g ai/ha", "result": 0}, {"measurement": "Plant response rating, Ragweed", "setting": "ragweed; [4]", "result": 0}, {"measurement": "Plant response rating, Pigweed", "setting": "pigweed; [2]", "result": 0}, {"measurement": "Plant response rating, Pigweed", "setting": "pigweed; [3]", "result": 0}, {"measurement": "Pigweed plant response rating (0 to 100 scale, 0 is no effect, 100 is complete control)", "setting": "pigweed; Postemergence, 500 g ai/ha", "result": 0}, {"measurement": "Plant response rating, Pigweed", "setting": "pigweed; [4]", "result": 0}, {"measurement": "Plant response rating, Foxtail, Giant", "setting": "giant foxtail; [2]", "result": 0}, {"measurement": "Plant response rating, Foxtail, Giant", "setting": "giant foxtail; [3]", "result": 0}, {"measurement": "Foxtail, Giant plant response rating (0 to 100 scale, 0 is no effect, 100 is complete control)", "setting": "giant foxtail; Postemergence, 500 g ai/ha", "result": 0}, {"measurement": "Plant response rating, Foxtail, Giant", "setting": "giant foxtail; [4]", "result": 0}, {"measurement": "Plant response rating, Ryegrass, Italian", "setting": "ryegrass, Italian; [2]", "result": 0}, {"measurement": "Plant response rating, Ryegrass, Italian", "setting": "ryegrass, Italian; [3]", "result": 0}, {"measurement": "Ryegrass, Italian plant response rating (0 to 100 scale, 0 is no effect, 100 is complete control)", "setting": "ryegrass, Italian; Postemergence, 500 g ai/ha", "result": 0}, {"measurement": "Plant response rating, Ryegrass, Italian", "setting": "ryegrass, Italian; [4]", "result": 0}, {"measurement": "Plant response rating, Blackgrass", "setting": "blackgrass; [1]", "result": 0}, {"measurement": "Blackgrass plant response rating (0 to 100 scale, 0 is no effect, 100 is complete control)", "setting": "blackgrass; 500 g ai/ha", "result": 0}, {"measurement": "Plant response rating, Galium", "setting": "galium; [1]", "result": 0}, {"measurement": "Galium plant response rating (0 to 100 scale, 0 is no effect, 100 is complete control)", "setting": "galium; 500 g ai/ha", "result": 0}]}
{"smiles": "O=C1NCC(c2cccc(-c3ccccc3C(F)(F)F)c2)C1C(=O)Nc1ccccc1C(F)(F)F", "note": "(stereo not shown) [Compound 237]", "values": [{"measurement": "Plant response rating, Wheat", "setting": "wheat; [5]", "result": 0}, {"measurement": "Plant response rating, Corn", "setting": "corn; [5]", "result": 0}, {"measurement": "Plant response rating, Kochia", "setting": "kochia; [6]", "result": 0}, {"measurement": "Plant response rating, Kochia", "setting": "kochia; [7]", "result": 0}, {"measurement": "Plant response rating, Barnyardgrass", "setting": "barnyardgrass; [6]", "result": 20}, {"measurement": "Plant response rating, Barnyardgrass", "setting": "barnyardgrass; [8]", "result": 60}, {"measurement": "Plant response rating, Ragweed", "setting": "ragweed; [6]", "result": 0}, {"measurement": "Plant response rating, Ragweed", "setting": "ragweed; [7]", "result": 0}, {"measurement": "Plant response rating, Pigweed", "setting": "pigweed; [6]", "result": 0}, {"measurement": "Plant response rating, Pigweed", "setting": "pigweed; [7]", "result": 0}, {"measurement": "Plant response rating, Foxtail, Giant", "setting": "giant foxtail; [6]", "result": 0}, {"measurement": "Plant response rating, Foxtail, Giant", "setting": "giant foxtail; [7]", "result": 80}, {"measurement": "Plant response rating, Ryegrass, Italian", "setting": "ryegrass, Italian; [6]", "result": 0}, {"measurement": "Plant response rating, Ryegrass, Italian", "setting": "ryegrass, Italian; [7]", "result": 0}, {"measurement": "Plant response rating, Blackgrass", "setting": "blackgrass; [5]", "result": 0}, {"measurement": "Plant response rating, Galium", "setting": "galium; [5]", "result": 0}]}
{"smiles": "O=C1NCC(c2cccc(-c3ccccc3F)c2)C1C(=O)Nc1ccccc1C(F)(F)F", "note": "(stereo not shown) [Compound 238]", "values": [{"measurement": "Plant response rating, Wheat", "setting": "wheat; [5]", "result": 0}, {"measurement": "Plant response rating, Corn", "setting": "corn; [5]", "result": 0}, {"measurement": "Plant response rating, Kochia", "setting": "kochia; [6]", "result": 0}, {"measurement": "Plant response rating, Kochia", "setting": "kochia; [7]", "result": 0}, {"measurement": "Plant response rating, Barnyardgrass", "setting": "barnyardgrass; [6]", "result": 30}, {"measurement": "Plant response rating, Barnyardgrass", "setting": "barnyardgrass; [8]", "result": 50}, {"measurement": "Plant response rating, Ragweed", "setting": "ragweed; [6]", "result": 0}, {"measurement": "Plant response rating, Ragweed", "setting": "ragweed; [7]", "result": 0}, {"measurement": "Plant response rating, Pigweed", "setting": "pigweed; [6]", "result": 0}, {"measurement": "Plant response rating, Pigweed", "setting": "pigweed; [7]", "result": 0}, {"measurement": "Plant response rating, Foxtail, Giant", "setting": "giant foxtail; [6]", "result": 30}, {"measurement": "Plant response rating, Foxtail, Giant", "setting": "giant foxtail; [7]", "result": 90}, {"measurement": "Plant response rating, Ryegrass, Italian", "setting": "ryegrass, Italian; [6]", "result": 0}, {"measurement": "Plant response rating, Ryegrass, Italian", "setting": "ryegrass, Italian; [7]", "result": 0}, {"measurement": "Plant response rating, Blackgrass", "setting": "blackgrass; [5]", "result": 20}, {"measurement": "Plant response rating, Galium", "setting": "galium; [5]", "result": 20}]}
